This assay concerns the target Metabotropic glutamate receptor 5 (Homo sapiens, UniProt P41594). The assay can be described thus: Positive modulation of human recombinant mGluR5 expressed in HEK293A cells by calcium based FLIPR assay. The format is functional, cell-based, HEK293-A.
Chain of Metabotropic glutamate receptor 5 (P41594 whole entry): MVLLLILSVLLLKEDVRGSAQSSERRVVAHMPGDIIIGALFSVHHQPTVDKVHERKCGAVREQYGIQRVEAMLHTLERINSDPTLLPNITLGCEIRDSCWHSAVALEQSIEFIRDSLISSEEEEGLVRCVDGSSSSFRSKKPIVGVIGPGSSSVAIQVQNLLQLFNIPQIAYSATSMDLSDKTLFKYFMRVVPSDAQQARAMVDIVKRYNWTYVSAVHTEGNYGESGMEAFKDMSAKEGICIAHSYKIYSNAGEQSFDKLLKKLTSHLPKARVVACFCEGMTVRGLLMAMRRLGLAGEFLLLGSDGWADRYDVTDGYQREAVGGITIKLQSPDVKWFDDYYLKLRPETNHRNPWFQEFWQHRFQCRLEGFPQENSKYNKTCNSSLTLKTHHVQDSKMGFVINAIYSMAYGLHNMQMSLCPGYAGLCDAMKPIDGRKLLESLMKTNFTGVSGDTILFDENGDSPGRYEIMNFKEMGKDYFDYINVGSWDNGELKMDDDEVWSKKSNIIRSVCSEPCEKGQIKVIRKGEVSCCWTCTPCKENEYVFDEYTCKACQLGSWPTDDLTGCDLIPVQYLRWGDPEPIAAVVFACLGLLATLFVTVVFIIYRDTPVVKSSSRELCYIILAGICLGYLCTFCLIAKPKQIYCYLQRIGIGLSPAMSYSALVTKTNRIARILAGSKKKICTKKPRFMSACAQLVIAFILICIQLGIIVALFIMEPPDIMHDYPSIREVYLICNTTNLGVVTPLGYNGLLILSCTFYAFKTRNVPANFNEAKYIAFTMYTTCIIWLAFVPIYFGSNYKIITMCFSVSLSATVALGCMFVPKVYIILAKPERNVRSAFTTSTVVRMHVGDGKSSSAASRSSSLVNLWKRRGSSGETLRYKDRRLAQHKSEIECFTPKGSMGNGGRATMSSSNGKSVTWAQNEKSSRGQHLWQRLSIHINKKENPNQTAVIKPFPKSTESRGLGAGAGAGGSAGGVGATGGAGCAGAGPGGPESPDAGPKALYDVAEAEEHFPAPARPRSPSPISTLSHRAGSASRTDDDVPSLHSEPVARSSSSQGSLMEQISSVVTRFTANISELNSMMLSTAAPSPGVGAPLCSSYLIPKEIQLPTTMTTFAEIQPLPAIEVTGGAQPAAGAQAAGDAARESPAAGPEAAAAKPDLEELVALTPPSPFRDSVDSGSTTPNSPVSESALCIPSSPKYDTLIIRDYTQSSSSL
Take `CC1=NC2CCN(C(=O)Cn3cc(-c4ccc(F)c(C)c4)nc3-c3ccccc3)CC2O1` (centres undefined): the EC50 was 90 nM.
With `Cc1cc(-c2cn(CC(=O)N3CCN(c4ccccn4)CC3)c(-c3ccc(F)cc3)n2)ccc1F`, the EC50 was found to be 53 nM.
For the compound `CC1=NC2CCN(C(=O)Cn3cc(-c4ccc(F)c(C)c4)nc3-c3ccc(F)cc3)CC2O1` (centres undefined), the EC50 is 40 nM.
With `Cc1cc(-c2cn(CC(=O)N3CCN(c4cccnn4)CC3)c(-c3ccccc3)n2)ccc1F` the figure was 858 nM.

As a reminder, the EC50 is the concentration giving half of the maximal effect.

For the origin of these results see ChEMBL document CHEMBL2429817, “Trisubstituted imidazoles as positive modulators of metabotropic glutamate receptor subtype 5” (ACS Med Chem Lett, 2013).
